Experiments:
Type in all cases: in vivo, human
[1] = test system: patients 65 years of age and older with major depression; assay: Hamilton Depression Rating Scale (HDRS-17 / HDRS-21) in 8-week double-blind comparison of paroxetine and mirtazapine
Description: Hamilton Depression Rating Scale (HDRS; 17 and 21 item versions of a structured interview) (Hamilton, M., J. Neurol. Neurosurg. Psychiatr. 23:56-62, 1960; Hamilton, M., Br. J. Soc. Clin. Psychol. 6:278-296, 1967). […] In other words, a lower rating in the HDRS scale signifies less depression. In contrast, HDRS remitters, which are those patients showing the least depression, are defined as subjects who have an HDRS-17 score of less than 7 at a post-baseline visit.
(§1) All statistical analyses were performed using the SAS software package (available from SAS Institute). For clinical measures of depression (HDRS-21, HDRS-17, GDS, and CGI), analyses of covariance were performed with baseline values as the covariate, and apoE genotype (ε4 allele carrier vs. non-carrier) and medication (mirtazapine, paroxetine) as the predictors. For remitter and responder analyses of clinical measures of depression, Cochran-Mantel-Haenszel statistics were used. For comparison of medication and genotype groups on baseline demographic measures, two-way analyses of variance were used.

[2] = test system: patients 65 years of age and older with major depression; assay: Geriatric Depression Scale (GDS) in 8-week double-blind comparison
Description: Geriatric Depression Scale (GDS) (Yesavage, J. A. et al., J. Psychiatr. Res. 17:37-49, 1983), a self-rating scale developed specifically for rating depression in the elderly. In the GDS, a lower rating signifies less depression. GDS 50% responders are defined as subjects with a decrease on a post-baseline assessment of at least 50% as compared to baseline.
as §1

[3] = test system: patients 65 years of age and older with major depression; assay: Clinical Global Impression Scale (CGI) in 8-week double-blind comparison; settings: day 14
Description: Clinical Global Impression Scale (CGI) (Guy, W., ECDEU Assessment Manual for Psychopharmacology, DHEW Publication No. (ADM) 76-338, rev. 1976). The CGI scale is a global 7-point rating of the severity of the illness taking into account the preceding week (CGI-Severity) and a global 7-point rating of the clinical status of the subject since baseline (CGI-Change). A responder is defined as being “Much Improved” or “Very Much Improved” —having a CGI score of at least 2 according to CGI-Change. Thus, a higher CGI-Severity score corresponds to more severe depression whereas a higher CGI-Change score corresponds to lessened depression, or an improvement in alleviating the symptoms of depression.
as §1

[4] = day 14, Caucasian subjects, p=0.006

Fc1ccc([C@@H]2CCNC[C@H]2COc2ccc3c(c2)OCO3)cc1 [paroxetine]
HDRS scores, ε4 carriers compared with noncarriers ([1]; day 14, Caucasian subjects): lees improvement
GDS scores, effect of ε4 allele ([2]; day 14, full cohort): no significant difference
50% reduction in GDS score, ε4 carriers compared with noncarriers ([2]; day 28, full cohort): no effect of apoE genotype
CGI scores, ε4 carriers compared with noncarriers ([3]; Caucasian subjects): no differences

CN1CCN2c3ncccc3Cc3ccccc3C2C1 (stereo not shown) [mirtazapine, 1,2,3,4,10,14b-hexahydro-2-methylpyrazino[2,1-a]pyrido[2,3-c]benzazepine]
HDRS-17 scores, mirtazapine-treated compared with paroxetine-treated patients ([1]; day 7, full cohort): significantly greater improvement
HDRS scores, ε4 carriers compared with noncarriers ([1]; day 14, Caucasian subjects): greater improvement
mean HDRS-17 scores, mirtazapine compared with paroxetine [1, 4]: significantly lower
mean HDRS-21 scores, mirtazapine compared with paroxetine [1, 4]: significantly lower
HDRS-17 scores, mirtazapine-treated compared with paroxetine-treated patients ([1]; day 14, full cohort): Significantly greater improvement
HDRS-21 scores, mirtazapine-treated compared with paroxetine-treated patients ([1]; day 14, full cohort): Significantly greater improvement
HDRS-17 50% responders, ε4 carriers compared with non-ε4 carriers ([1]; day 14, full cohort, p=0.049): significantly more
GDS scores, ε4 carriers compared with noncarriers ([2]; day 14, Caucasian subjects): significantly lower
GDS scores, effect of ε4 allele ([2]; day 14, full cohort): large decrease in GDS scores
CGI scores, ε4 carriers compared with noncarriers ([3]; Caucasian subjects): significantly better
CGI scores, mirtazapine treated compared with paroxetine treated subjects ([3]; Caucasian subjects, p=0.037): significantly better
CGI scores, mirtazapine-treated compared with paroxetine-treated patients ([3]; full cohort): Significantly greater improvement

From patent US6399310B1, “Methods for improving the therapeutic response of humans having major depression and carrying the gene for apolipoprotein E4” (Akzo Nobel N.V., priority 2001, dated 2002)
